The results in this text go back to patent publication US20060079439A1, “Elastin prevents occlusion of body vessels by vascular smooth muscle cells” (priority 2002, published 2006).

In assay [1] the test system is Eln −/− vascular smooth muscle cells. To be noted: for effect of pretreatment on tropoelastin- or elastin peptide-induced actin stress fiber formation: 100 μM actinomycin D, 10 μg/ml cyclohexamide, 100 ng/ml pertussis toxin or β protomer, 20 μM EDTA, 10 μM genistein; for effect on induction of contractile organization in Eln −/− vsmcs by elastin: pertussis toxin 100 ng/ml, preliminary experiments; for formation of organized actin stress fibers / actin myofilament polymerization: 3 hours, 1 ug/ml tropoelastin, 10 nM elastin peptide or 10 nM control peptide.

Assay [2] has as its system vascular smooth muscle cells. The format is cell-based, mouse. To be noted: for effect of inhibitor on elastin peptide induced cell migration / effect of inhibitor on migration in response to PDGF: 10 μM genistein, 100 ng/ml pertussis toxin; for effect of inhibitor on elastin peptide induced cell migration: 100 ng/ml β-protomer, 20 μM Y27632; for effect on migration of Eln −/− vsmcs towards elastin: pertussis toxin 100 ng/ml, preliminary experiments; for effect of inhibitor on migration in response to PDGF: 30 ng/ml PDGF. The protocol: Instead, we postulated that elastin signals vsmcs to migrate and adhere to the elastic lamellae. To test this hypothesis we used a modified Boyden chamber assay (Li et al., 1998; Raines et al., 1993). This assay system consists of two adjacent chambers separated by a semipermeable membrane. The amount of cells placed in one chamber (upper) that migrate to the other chamber (lower) is measured by counting the number of cells that have passed through to the undersurface of the filter.
Briefly, chemotaxis was measured using a modified Boyden chamber method. […] Prior to their addition to the upper chamber, vascular smooth muscle cells were incubated with either 20 μM EDTA (inhibitor of integrin receptors), 10 μM genistein (inhibitor of receptor tyrosine kinases), 100 ng/ml pertussis toxin, 100 ng/ml β-protomer, 20 μM Y27632, or the cells were left untreated. […] Cells were added to the upper chamber and incubated for three hours.

For assay [3], the system named is Eln −/− vascular smooth muscle cells. The assay can be described thus: Focal adhesion organization, vinculin immunofluorescence. The settings on record: 3 hours; 1 ug/ml tropoelastin, 10 nM elastin peptide or 10 nM control peptide. The format is cell-based, mouse.
Assay [4] has as its system α smooth muscle actin and vinculin in elastin −/− vascular smooth muscle cells. The assay can be described thus: Western blot of protein levels. In kind it is cell-based, mouse. To be noted: three hours; 1 μg/ml tropoelastin, 10 μM elastin peptide. The protocol:
We performed two experiments to address this model. […] Cells were washed with ice-cold DPBS and lysed in an additional 1 ml of Laemmli sample buffer. Following lysis, cells were collected, boiled, pelleted, and resolved by SDS-PAGE. The resolved samples were transferred to a membrane, blocked with 5% milk/PBST, incubated with either an anti-α smooth muscle actin antibody or an anti-vinculin antibody, and visualized using chemiluminescence.
(In general: A western blot detects proteins with antibodies after separation by electrophoresis.)

For assay [5], the system named is cAMP levels in Eln −/− vsmcs. In kind it is cell-based, mouse. The settings on record: for forskolin induced cAMP levels: 10 μM forskolin pretreatment, 1 ug/ml tropoelastin, 10 μM elastin peptide or control peptide. In general terms: cAMP levels reflect the balance of adenylyl cyclase and phosphodiesterase activity.
Assay [6] relates to −/− vascular smooth muscle cells. The assay can be described thus: F:G actin ratio, sedimentation assay. In kind it is cell-based, mouse. The settings on record: for increase in the F:G actin ratio: versus untreated cells.
For a further assay, the system named is RhoA. The assay is described as follows: RhoA activation, Rhotekin bead pull-down and Western blot. In kind it is cell-based, mouse. The source says:
Briefly, cell lysates from treated or untreated −/− cells were immunoprecipitated using Rhotekin-coated beads which recognize GTP-bound RhoA. […] Rho-γGTP served as a positive control and Rho-GDP served as a negative control.

Entries after “also recorded” stand apart in the source; their conditions may differ. *1 amine or outer side, *2 acyl side, *3 side chain or, on linkers, in order; H or OH if unused. Where a SMILES comes first, the peptide text is derived from it. Bridges are numbered along the chain shown (N, C = ends). Roman numbers before positions name the chains, in order. [ ]: non-standard residue; d: D form. Actinocin(9to1) = Cc1c2oc3c(C)ccc(C(=O)[*:1])c3nc-2c(C(=O)[*:2])c(N)c1=O; NMeV = CN[C@H](C(=O)O)C(C)C; Sar = CNCC(=O)O

As to `O=C(O)CN(CCN(CC(=O)O)CC(=O)O)CC(=O)O` [EDTA, ethylenediamine tetraacetic acid], in assay [1], the “effect of pretreatment on tropoelastin- or elastin peptide-induced actin stress fiber formation” value is “not altered” and the “effect on induction of contractile organization in Eln −/− vsmcs by elastin” value is on record as “little or no inhibition”. For the same compound, the “effect of inhibitor on migration in response to collagen” value in assay [2] (10 μg/ml collagen type I, 20 μM EDTA) was “able to block”. Besides, the “effect of inhibitor on elastin peptide induced cell migration” value in assay [2] (20 μM EDTA) is on record as “insensitive”. Moreover, the “effect on migration of Eln −/− vsmcs towards elastin” value in assay [2] is “insensitive”.

Consider `C[C@@H](N)[C@H]1CC[C@H](C(=O)Nc2ccncc2)CC1` [Y-27632], for which, in assay [1], the “effect of pretreatment on tropoelastin- or elastin peptide-induced actin stress fiber formation” value is “significantly decreased”. The “effect of inhibitor on elastin peptide induced cell migration” value in assay [2] (20 μM EDTA) is recorded as “does not block”.

With `Cc1c2oc3c(C)ccc(C(=O)N[C@@H]4C(=O)N[C@H](C(C)C)C(=O)N5CCC[C@H]5C(=O)N(C)CC(=O)N(C)[C@@H](C(C)C)C(=O)O[C@@H]4C)c3nc-2c(C(=O)N[C@@H]2C(=O)N[C@H](C(C)C)C(=O)N3CCC[C@H]3C(=O)N(C)CC(=O)N(C)[C@@H](C(C)C)C(=O)O[C@@H]2C)c(N)c1=O` [actinomycin D] (I: T[dV]P[Sar][NMeV] / II: T[dV]P[Sar][NMeV]; ester I:1-I:C, II:1-II:C; linker I:N-II:N via Actinocin(9to1)), the “effect of pretreatment on tropoelastin- or elastin peptide-induced actin stress fiber formation” value in assay [1] is on record as “maintained”.

`C[C@@H]1C[C@@H]([C@H](O)CC2CC(=O)NC(=O)C2)C(=O)[C@@H](C)C1` [cyclohexamide]: the “effect of pretreatment on tropoelastin- or elastin peptide-induced actin stress fiber formation” value in assay [1] is “maintained”.

As to `O=c1c(-c2ccc(O)cc2)coc2cc(O)cc(O)c12` [genistein], the “effect of pretreatment on tropoelastin- or elastin peptide-induced actin stress fiber formation” value in assay [1] was “not altered”. Also, the “effect of inhibitor on migration in response to PDGF” value in assay [2] is “able to block”. For the same compound, in assay [2] (20 μM EDTA), the “effect of inhibitor on elastin peptide induced cell migration” value is “insensitive”.

As for “VGVAPG (A bioactive fragment of tropoelastin.) [elastin peptide]”, the “organization of focal adhesions (vinculin)” value in assay [3] is recorded as “induced organization of focal adhesions”. Also, the “protein levels of α smooth muscle actin or vinculin” value in assay [4] is “does not alter”. For the same compound, the “formation of organized actin stress fibers / actin myofilament polymerization” value in assay [1] is given as “induced actin myofilament polymerization”. Further, in assay [1] (three hours, 0.2 nM to 20 μM), the “dose dependence of the increase of actin stress fibers” value is “dose dependent”. Also, in assay [1] (time course 15 minutes to 24 hours), the “treatment time of maximal effect on actin stress fiber formation” value is reported as “about 6 hours”. In assay [5], the “forskolin induced cAMP levels” value is listed as “decrease”. The “increase in the F:G actin ratio” value in assay [6] amounted to 3 fold. For the same compound, the “GTP-bound (activated) RhoA” value in the assay with RhoA (lysates of treated −/− cells) is given as “significant increase”. Besides, the “vascular smooth muscle migration relative to tropoelastin and PDGF” value in assay [2] (20 nM elastin peptide, three hours) was “comparable to both tropoelastin and PDGF”.

cholera toxin [reference compound]: in assay [5], the cAMP levels result is “increased”.

For “control peptide: control peptide (SEQ ID NO: 4) (VSLSPG; Control random fragment.) [reference compound]”, the “formation of organized actin stress fibers / actin myofilament polymerization” value in assay [1] is reported as “did not produce this effect”. In addition, the “forskolin induced cAMP levels” value in assay [5] is “not”. For the same compound, the “increase in the F:G actin ratio” value in assay [6] was “not”.

With pertussis toxin, in assay [1], the “effect of pretreatment on tropoelastin- or elastin peptide-induced actin stress fiber formation” value is recorded as “significantly decreased” and the “effect on induction of contractile organization in Eln −/− vsmcs by elastin” value is given as “sensitive”. For the same compound, in assay [5], the “effect on the tropoelastin or elastin peptide effect on forskolin induced cAMP levels” value is “blocked”. Further, the “effect of pretreatment on the tropoelastin or elastin peptide effect on the F:G actin ratio” value in assay [6] (100 ng/ml pretreatment) is listed as “significantly decreased”. For the same compound, the “RhoA activation by tropoelastin or elastin peptide after pretreatment” value in the assay with RhoA (pretreatment with pertussis toxin) is “unable to activate RhoA”. Moreover, in assay [2], the “effect of inhibitor on migration in response to PDGF” value is on record as “no impact; also recorded: insensitive” and the “effect on migration of Eln −/− vsmcs towards elastin” value was “sensitive”. Besides, the “effect of inhibitor on elastin peptide induced cell migration” value in assay [2] (20 μM EDTA) is given as “blocked”.
